Measurements taken from BindingDB's records for doi:10.7270/Q2QN6575 (Nmmlsc, 2011).

target: T1, Citrate synthase, peroxisomal [1-24] (Saccharomyces cerevisiae, UniProt P08679); assay: CIT2-GFP expression modulators in yeast, SAR follow-up, flow cytometry, cherry pick 3, dose response (AID 488825); settings: not given
T1 construct: 1-24
T1 sequence (P08679 1-24): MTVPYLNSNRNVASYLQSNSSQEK

EC50 | Structure (SMILES)
74.1 µM | Cc1nc(Nc2ccc(Br)cc2Br)c([N+](=O)[O-])c(=O)[nH]1 [6-[[2,4-bis(bromanyl)phenyl]amino]-2-methyl-5-nitro-1H-pyrimidin-4-one]

same assay, conditions: inactive by the depositor's call

Structure (SMILES) | EC50
O=C(O)c1ccc2cccc(O)c2n1 [8-oxidanylquinoline-2-carboxylic acid] | 300 µM
Oc1c(Cl)cc(Cl)c2cccnc12 [AS-229] | 19800 µM
Cc1ccc(C(=O)Nc2nc(-c3ccccn3)cs2)o1 [5-methyl-N-[4-(2-pyridinyl)-2-thiazolyl]-2-furancarboxamide] | 3680 µM

Continued, values first:

EC50 | Structure (SMILES)
58 µM | COc1ccccc1-c1cc(C(F)(F)F)nc(S(=O)(=O)CCCC(=O)O)n1 [4-[4-(2-methoxyphenyl)-6-(trifluoromethyl)pyrimidin-2-yl]sulfonylbutanoic acid]
128 µM | CCC(C)Nc1nc(N)c([N+](=O)[O-])c(Nc2ccccc2OC)n1 (stereo unspecified) [SMR000434817]
